Experimental findings from PMC12040169 (PLOS Biology, 2025) are described below.

A short description of the data set: in vitro. The following applies: human, hela cells, % viability.

The viability is a read-out of living cells in per cent, often relative to untreated cells.

Each structure is given as a SMILES string.

As to `Cc1cccc(C2N3CCC4(CC3)c3[nH]c5ccccc5c3CCN24)n1` (stereo not drawn) [CBK284435], the viability at 28.5 h, 10 µM stood at 90.5%.

Turning to `CN1CCCCC[C@@H]2[C@@H]1[C@H](c1ccccc1)CN2C(=O)CN1CCCCCC1=O` [CBK285524], the viability at 28.5 h, 10 µM stood at 87.5%. Regarding `Cc1ccc(C(=O)Nc2nc(C)c(-c3n[nH]c(=S)n3C)s2)cn1` [CBK295327], the viability at 28.5 h, 10 µM came out at 91.8%. Same read-out and setting: with `CCOC(=O)C1=C(CSc2nccn2C)NC(=O)NC1c1ccc2c(c1)OCO2` (stereo not drawn) [CBK268746] the figure was 85.5%; with `CC(=O)NC[C@H]1C[C@@H]2CCN1C[C@@H]2c1cc(-c2ccco2)nc(C)n1` [CBK289128], 102%; with `O=c1c2cc(F)ccc2nc2n1CCN(Cc1cccs1)CC2` [CBK284859], 110%. Same read-out and setting: to `Cc1cc2c(o1)c1cnn(CC(=O)N(C)C)c(=O)c1n2C(C)C` [CBK284233] belongs 88.9%; to `CC[C@H]1CN(C(=O)c2ccnc(Cl)c2)CC[C@H]1CC(=O)NCc1ccc2c(c1)OCO2` [CBK289137], 110%. On the same count and under the same terms, to `Nc1ccc(-n2c(-c3ccccc3)c3c(c2-c2ccc(Cl)cc2)C(=O)c2ccccc2C3=O)cc1` [CBK262695] belongs 87.3%. On to `COc1cc(-c2cncc(N3CCC(C(=O)O)CC3)n2)cc(OC)c1OC` [CBK037973], for which the viability at 28.5 h, 10 µM was 100%.

As for `O=C1CC(N2CCN(c3ccccn3)CC2)C(=O)N1CCc1ccccc1` (stereo not drawn) [CBK262282], the viability at 28.5 h, 10 µM was found to be 77.9%. With `Cc1cc(O)nc(SCCCSc2ccccc2)n1` [CBK267415], the viability at 28.5 h, 10 µM stood at 114%.

Take `CCN(CCO)C(=O)c1cccc(-c2cnn(C(F)F)c2C)c1` [CBK307519]: the viability at 28.5 h, 10 µM amounted to 95.5%. Same read-out and setting: to `COc1cc(CNc2cc(-c3ccc(F)c(Cl)c3)nc3ccnn23)cc(OC)c1OC` [CBK037209] belongs 107%; to `CN(C)Cc1ccccc1C(O)c1ccccc1` (stereo not drawn) [CBK261277], 94.4%; to `CNCCc1nc(-c2ccc(F)cc2)c2cnccn12` [CBK035927], 90.7%. The same measure, in the same setting: to `COc1ccc(F)cc1-c1ccc(S(=O)(=O)Nc2nc(CC(=O)N3CCOCC3)cs2)cc1` [CBK200031] belongs 88%; to `O=C1CC(c2ccccc2)=NN1c1nc(-c2ccccc2)cc(-c2ccc(F)cc2)n1` [CBK261717], 92.4%; to `O=C(O)c1ccccc1C(=O)Nc1c(-c2ccccc2)nc2ccccn12` [CBK287041], 96.2%. Turning to `CN1CCN(c2ccc(NC(=O)c3ccc(OCc4ccccc4)cc3)cc2)CC1` [CBK266124], the viability at 28.5 h, 10 µM is 99.6%. With `COCCNc1nc(-c2ccc(F)cc2)cnc1N` [CBK063591], the viability at 28.5 h, 10 µM amounted to 116%.

In the case of `CC(=O)Nc1cccc(C(=O)OCC(=O)N2CCCCC2C)c1` (stereo not drawn) [CBK305868], the viability at 28.5 h, 10 µM was found to be 76.6%. `O=C(Nc1ccc(S(=O)(=O)N2CCCCC2)cc1)c1ccc(CN2CCc3ccccc3C2)cc1` [CBK263993]: the viability at 28.5 h, 10 µM was found to be 90.7%.

Consider `O=C(Cc1ccccc1Cl)NCc1nnc(-c2cccs2)o1` [CBK284643], for which the viability at 28.5 h, 10 µM came out at 96.4%. With `COc1ccc(SC(C)C(=O)N2CCN(c3ccc([N+](=O)[O-])nc3)CC2)cc1` (stereo not drawn) [CBK298282], the viability at 28.5 h, 10 µM came out at 93.5%.

Turning to `Cc1nc(C)c(C(=O)NCCN2CCCCC2C)s1` (stereo not drawn) [CBK282200], the viability at 28.5 h, 10 µM was determined as 106%. `Cc1cc(O)cc(C2CCCN(C(=O)c3cccc(F)c3)C2)n1` (stereo not drawn) [CBK283440]: the viability at 28.5 h, 10 µM worked out at 100%. With `c1ccc(-c2ccno2)c(OCc2ccc(-c3nccnc3-c3nnn[nH]3)cc2)c1` [CBK050817], the viability at 28.5 h, 10 µM is 93.6%. Still for that read-out and setting: to `N#C/C(=C\c1ccc(N2CCOCC2)cc1)c1nc2ncc(Br)cc2[nH]1` [CBK266294] belongs 89.4%.

As for `COc1cc(NC(=O)CC2(C(=O)O)CCCCC2)ccc1N1CCCC1=O` [CBK296761], the viability at 28.5 h, 10 µM came to 109%. Take `Cn1cccc1C(=O)Nc1ccccc1N1CCNCC1` [CBK029450T]: the viability at 28.5 h, 10 µM came to 95.4%. Same read-out and setting: to `O=C(O)CCc1ccc(-c2ccc(Cl)cc2)n1Cc1ccco1` [CBK265984] belongs 92.4%; to `Cc1ccc(CN2CC(C(=O)N3CCC(C(=O)O)CC3)CC2=O)cc1` (stereo not drawn) [CBK300205], 91.8%; to `CC(C)Nc1nc2cc(Cl)c(Cl)cc2nc1OCc1cccnc1` [CBK115743], 97.4%.

For `CC(C)CCc1ccc(C#N)c(=O)[nH]1` [CBK016227], the viability at 28.5 h, 10 µM is 98.8%.

Consider `O=C1NC(=O)C(=CNCCc2c[nH]c3ccccc23)C(=O)N1` [CBK261635], for which the viability at 28.5 h, 10 µM (bulk resorufin, single well) worked out at 93.2%.

Consider `CC(C)[C@H](CO)n1c(=O)[nH]c2ncc(-c3cccc(/C=C/C(=O)O)c3)nc21` [CBK065051], for which the viability at 28.5 h, 10 µM turned out to be 92.5%. Still for that read-out and setting: with `CCOC(=O)c1c(NC(=O)C2CC(Cl)=CCC2C(=O)O)sc2c1CCCCC2` (stereo not drawn) [CBK264263] the figure was 90.2%; with `Cc1ccc(S(=O)(=O)N(CC(=O)Nc2ccc(Cl)cc2C)c2cccc(Cl)c2C)cc1` [CBK264021], 85.7%; with `O=C([C@H]1O[C@H](CCN2CCN(c3ccccn3)CC2)CC[C@@H]1O)N1CCCC1` [CBK288730], 83.3%. In the case of `O=C(Nc1c(Cl)cccc1Cl)c1ccc(-c2ccccc2)cc1` [CBK262300], the viability at 28.5 h, 10 µM worked out at 94.5%.

For `O=C(NCCN1CCC(O)(c2cccc(F)c2)CC1)c1cccs1` [CBK282450], the viability at 28.5 h, 10 µM amounted to 112%. Regarding `COc1ccc(C(=O)c2sc3nc(C)c(C)c(C)c3c2N)cc1OC` [CBK074427], the viability at 28.5 h, 10 µM is 72.7%. On the same count and under the same terms, to `O=C(NCCNC(=O)c1ccccc1I)c1ccccn1` [CBK269357] belongs 89.4%. On the same count and under the same terms, to `NS(=O)(=O)c1ccc(NC(=S)NCCN2CCOCC2)cc1` [CBK265818] belongs 107%; to `Cc1c(C=Cc2cc(C(=O)O)c3ccccc3n2)cc(C#N)n1C` [CBK295604], 104%; to `Clc1nc(NCCN2CCOCC2)nc(N2CCCCCC2)n1` [CBK027412], 98.9%. `O=C(c1sc2ccccc2c1Cl)N1CCN(CCN2C(=O)c3cccc4cccc(c34)C2=O)CC1` [CBK262557]: the viability at 28.5 h, 10 µM was 99%. Same read-out and setting: to `Cn1cc(C(=O)Nc2c(F)cc(F)cc2OC2CCNCC2)c2ccccc21` [CBK050328T] belongs 89.1%; to `Cc1nc(C)c(-c2cnc(NS(=O)(=O)c3ccc(Cl)cc3)nc2)s1` [CBK005935], 86.9%; to `O=C(Nc1ccc(Oc2ccccc2)cc1)c1cnc2n(c1=O)CCS2` [CBK287377], 95.1%. Regarding `CCn1cc(S(=O)(=O)NCc2ccccc2OC)cn1` [CBK270304], the viability at 28.5 h, 10 µM amounted to 98.1%.

As for `Clc1ccc(COc2nccnc2OCC2CCCO2)cc1Cl` (stereo not drawn) [CBK161587], the viability at 28.5 h, 10 µM was determined as 105%. For the compound `O=C(CCCN[C@H]1CC[C@](O)(c2ccc(F)cc2)CC1)c1ccc(F)cc1` [CBK023258C], the viability at 28.5 h, 10 µM is 90.7%. The same measure, in the same setting: with `OC(CNCc1ccc2c(c1)OCO2)CSc1ccccc1` (stereo not drawn) [CBK074684] the figure was 101%. On to `Cc1ccc2[nH]cc(CCN3CCC4(C3)OCCc3c4[nH]c4ccccc34)c2c1` (stereo not drawn) [CBK061790], for which the viability at 28.5 h, 10 µM is 84.7%. On the same count and under the same terms, to `NC(=O)c1ccccc1/N=C/c1ccc([N+](=O)[O-])o1` [CBK261675] belongs 105%; to `O=C(Nc1ccccc1Oc1ccc(F)cc1)c1ccc(Cn2cncn2)cc1` [CBK285587], 118%. Regarding `Cc1nn2c(-c3cccc(NC(=O)CN4CCOCC4)c3)nnc2c2ccccc12` [CBK268383], the viability at 28.5 h, 10 µM was 84.3%. With `CC(C)[C@H](CO)Nc1cncc(-c2cccc3ccccc23)n1` [CBK065501], the viability at 28.5 h, 10 µM is 85.9%. Take `COc1cc2c(cc1OC)C1c3ccccc3NC(c3ccccc3F)N1CC2` (stereo not drawn) [CBK286311]: the viability at 28.5 h, 10 µM was determined as 98.9%. On the same count and under the same terms, to `Cc1ccc(-c2cc(-c3ccccc3O)nc(N/N=C/c3cccnc3)n2)cc1` [CBK262308] belongs 85.2%. On the same count and under the same terms, with `COc1cccc(C(=O)Nc2ccc(NC(=O)C3CC=CCC3C(=O)O)cc2)c1` (stereo not drawn) [CBK266316] the figure was 107%. In the case of `O=C(Nc1cc(-c2nc3ncccc3o2)ccc1Cl)c1ccco1` [CBK269730], the viability at 28.5 h, 10 µM stood at 104%. For the compound `O=C(Nc1cccnc1)c1cc(S(=O)(=O)N2CCOCC2)ccc1Cl` [CBK262099], the viability at 28.5 h, 10 µM amounted to 84.7%.

In the case of `Cc1nn(C)cc1S(=O)(=O)Nc1ccc2c(ccn2C)c1` [CBK282806], the viability at 28.5 h, 10 µM was 77.4%. Still for that read-out and setting: with `COc1ccc(OCC(=O)NNC(=O)c2cnccn2)cc1` [CBK262619] the figure was 98.1%; with `CCN(CC)S(=O)(=O)c1cc(S(=O)(=O)N(CC)CC)c2cccc3c2c1NC(=O)O3` [CBK005022], 85.3%. As to `COc1ccc(/C=N/NC(=O)CSc2nnc(C)n2-c2ccccc2)cc1` [CBK262812], the viability at 28.5 h, 10 µM worked out at 114%. Still for that read-out and setting: to `O=S(=O)(NC1c2cccc3cccc(c23)C1Sc1ncccn1)c1ccc(Cl)cc1` (stereo not drawn) [CBK264638] belongs 94.3%; to `O=C(c1cccnc1)C1CCN(C(=O)Cc2ccc(F)cc2)CC1` [CBK283515], 90.5%. On to `COc1cc(OCc2ccccc2)ccc1CN1CCN(Cc2ccc3c(c2)OCO3)CC1` [CBK074768], for which the viability at 28.5 h, 10 µM stood at 97.9%. Still for that read-out and setting: to `Cc1cccc2c3c([nH]c12)C1(CCCN(CCc2ccc([N+](=O)[O-])cc2)C1)NCC3` (stereo not drawn) [CBK039558] belongs 92.4%; to `COc1ccc2[nH]c(=O)c(CNc3ccc4c(c3)-c3ccccc3S(=O)(=O)N4)cc2c1` [CBK286409], 84.2%. Same read-out and setting: to `COc1ccc2c(c1Br)C=C(n1ccnc1)CC2` [CBK017808] belongs 76.9%; to `COc1ccccc1CC(=O)Nc1ccc(-c2nnc(-c3ccc(C)cc3)o2)cc1` [CBK268329], 105%; to `O=C(O)C1CC=CCC1C(=O)N1CCN(C(=O)c2ccco2)CC1` (stereo not drawn) [CBK299784], 94.1%. The same measure, in the same setting: to `CCCC(=O)c1ccc(S(=O)(=O)N2CCN(Cc3csc(-c4ccccc4)n3)CC2)cc1` [CBK063161] belongs 93.3%.
